Laboratory results taken from patent US20090149531A1, “CHEMICAL COMPOSITION DERIVED FROM P-HYDROXYPHENYL PROPIONIC ACID FOR THE TREATMENT OF PSORIASIS” (APOTEKNOS PARA LA PIEL, S.L., priority 2007, published 2009).
Values joined by “and” are separate entries in the source; they are usually repeats but may differ in a detail not shown here. Equal values may be shown once.

Test system: Salmonella typhimurium TA1535
Test: Ames test without external metabolisation, TA1535
Assay type: cell-based
Details: no metabolic activation; for Colonies per plate: individual plates 1-4, A; for Colonies per plate / Colonies per plate, Mean: 48 hours; for Mutagenic Ind,: relative to H+/B+
Protocol: The mutagenic activity of compound A was evaluated using the Ames test without external metabolisation. The Ames test is based on the use of bacterial strains to detect mutations in the DNA in vitro using bacterial strains that make it possible to detect types of damage to the genome.
Bacteria of 4 strains of Salmonella typhimurium that are internationally recommended for this test, TA1535, TA1537, TA98 and TA100, were used. The test was carried out according to highly standardised protocols. […] The test was carried out without external metabolic activation. The plates were incubated at 37° C. and the reverting colonies were counted after 48 hours.

**Q.** Which Colonies per plate (Comp. A 10 μg/ml) does the source give for `C=C1C(=O)O[C@H](CCc2ccc(OC)cc2)[C@@H]1C` [Compound A] here?
**A.** The Colonies per plate was 1 (2×) and 2 and 0.

**Q.** And the “Colonies per plate, Mean” value (Comp. A 10 μg/ml)?
**A.** Its value is 1.

**Q.** And the “Mutagenic Ind,” value (Comp. A 10 μg/ml)?
**A.** The value was 0.5.

**Q.** And the Colonies per plate (Comp. A 100 μg/ml)?
**A.** Its Colonies per plate is 1 (2×) and 2 and 0.

**Q.** And the “Colonies per plate, Mean” value (Comp. A 100 μg/ml)?
**A.** The value was 1.

**Q.** What about the “Mutagenic Ind,” value (Comp. A 100 μg/ml) of the same molecule?
**A.** Its value is 0.5.

**Q.** What about the Colonies per plate (Comp. A 1 mg/ml) of the same molecule?
**A.** Its Colonies per plate is 1 (2×) and 0 and 2.

**Q.** And the “Colonies per plate, Mean” value (Comp. A 1 mg/ml)?
**A.** Its value is 1.

**Q.** And the “Mutagenic Ind,” value (Comp. A 1 mg/ml)?
**A.** Its value is 0.5.

**Q.** And the “Ames test result (mutagenic effects)” value (TA1535, concentrations evaluated 10 μg/ml to 1 mg/ml)?
**A.** The value was “negative”.
